Experimental data published in US20060019954A1, “Method for reducing the likelihood of the occurrence of cardiac arrhythmias” (Cedars-Sinai Medical Center, priority 2004, published 2006).

Tested on: SCD canine subjects (myocardial infarction, complete AV block, NGF to left stellate ganglion)
Experiment: Effect of BRL 37344 infusion in the canine sudden cardiac death (SCD) model
Format: in vivo
Text: The canine SCD model is created by inducing myocardial hyperinnervation within the left stellate ganglion in combination with creating a complete atrioventricular (AV) block and inducing a relatively mild myocardial infarction (MI). The AV block is typically created by ablating the AV node of the heart using an ablation catheter and the MI is induced by ligating the left anterior descending portion of the coronary artery. Myocardial hyperinnervation is stimulated by application of nerve growth factor (NGF) or other neurtrophic vectors to the left stellate ganglion. Alternatively, electrical stimulation signals may be applied to the left stellate ganglion.
Four canine groups were evaluated in this study. MI was created in each of the canine subjects by ligating the left anterior descending coronary artery. Complete AV block was created by radiofrequency ablation of the atrioventricular junction in the MI, SCD and RSG Groups. An ICD was used to monitor for the occurrence of ventricular arrhythmias. Nerve growth factor (NGF) was infused by an osmotic pump throughout a 4-5 week period in the left stellate ganglion (LSG) of the canine subjects in the SCD Group and in the right stellate ganglion (RSG) of the canine subjects in the RSG Group. The canine subjects in the SCD Group was characterized by a high incidence of SCD (44%), long QTc intervals and frequent episodes of ventricular tachycardia, whereas the RSG Group had no SCD, short QTc intervals and few episodes of VT.
Two canine groups were studied and compared to ascertain the effect of a β3 adrenergic receptor agonist (BRL 37344) on the incidence of phase-2 VT, typically leading to sudden cardiac death. Table 4 compares the incidence of phase-2 VT, QTc intervals and the size of myocardial infarction (“MI”) of SCD canine subjects and SCD canine subjects receiving BRL 37344 infusion.
β3 adrenergic receptor agonist BRL 37344 was infused subcutaneously by an osmotic pump (2 μg/kg/hr) for two weeks in two canine subjects with myocardial infarction, complete atrioventricular block and nerve growth factor to the left stellate ganglion (BRL Group). Surface ECG was continuously recorded by Data Sciences International (DSI) and analyzed manually.

## C[C@H](Cc1ccc(OCC(=O)O)cc1)NC[C@H](O)c1cccc(Cl)c1 [BRL 37344]
2 μg/kg/hr by osmotic pump for a two week period, mammalian SCD models
  Effect on incidence of ventricular arrhythmias: effective in significantly reducing the incidence of ventricular arrhythmias
SCD canine subjects, BRL 37344 2 μg/kg/hr subcutaneous by osmotic pump for two weeks, n=2, SCD Group without infusion 2.0 ± 2.0 per day
  Incidence of Phase-2 VT: 0.08±0.11 per day
SCD canine subjects, BRL 37344 2 μg/kg/hr subcutaneous infusion, throughout follow-up, SCD Group without infusion 400 ms
  QTc Interval: 350 ms
SCD canine subjects, BRL 37344 2 μg/kg/hr subcutaneous infusion, SCD Group without infusion 17 ± 4%
  Size of MI: 16±1.2%
Short runs of VT episodes observed from day 36 to day 44 after surgery
  Phase-2 VT episodes, first canine subject of the BRL Group: no phase-2 VT for five weeks
Two canine subjects of the BRL Group, followed up for two months
  Occurrence of sudden cardiac death during follow-up: without SCD
Two months follow-up
  Phase-2 VT episodes, second canine subject of the BRL Group: no phase-2 VT episodes
